Marks after values point to notes of the source that are not given here.
Key:
[1] = test system: acetic acid writhing model; assay: Efficacy evaluation in acetic acid writhing model; assay type: in vivo, male ICR mice; conditions: mice, writhing number 5 to 20 min after 0.9% acetic acid i.p., mean ± standard error
Experimental: Efficacy evaluation in acetic acid writhing model
The acetic acid writhing model was subjected to evaluation according to the method of European Journal of Pharmacology, 352, 47-52 (1998). To be specific, a solution of the test compound adjusted to the objective concentration with a 0.5 (w/v) % tragacanth gum solution was orally administered to male ICR mice (CHARLES RIVER LABORATORIES JAPAN, INC.) at 5 mL/kg, and a 0.9% acetic acid solution adjusted with a physiological saline was intraperitoneally administered 60 min later at 5 mL/kg. The number of writhing for 15 min from 5 min to 20 min after administration of a 0.9% acetic acid solution was counted and taken as the writhing number of the test compound. A mouse, to which a 0.5 (w/v) % tragacanth gum (TG) solution was orally administered at 5 ml/kg instead of the test compound, was used as a control. The suppression rate (%) was calculated by subtracting the relative value of each mouse from the relative value when the average value of the control group is 100%. As a Reference Example, the value obtained by oral administration of a positive control drug, indomethacin, instead of the test compound is shown. […] For testing the significant difference, Dunnett's t-test was used, and statistic significance as shown by P<0.05 and P<0.01 relative to the TG control group is shown in the Table with * and **, respectively.

[2] = target: T1, human activated tissue kallikrein (Homo sapiens, UniProt P06870); assay: Measurement of tissue kallikrein inhibitory activity; assay type: biochemical; conditions: activated tissue kallikrein activity (initial rate) inhibited by 50%; substrate D-valyl-L-leucyl-L-arginyl-p-nitroanilide; 37° C.
T1 construct: 6xHis (C); made in house; host or cells: baculovirus / Sf21 insect cells
T1 sequence (P06870 25-262): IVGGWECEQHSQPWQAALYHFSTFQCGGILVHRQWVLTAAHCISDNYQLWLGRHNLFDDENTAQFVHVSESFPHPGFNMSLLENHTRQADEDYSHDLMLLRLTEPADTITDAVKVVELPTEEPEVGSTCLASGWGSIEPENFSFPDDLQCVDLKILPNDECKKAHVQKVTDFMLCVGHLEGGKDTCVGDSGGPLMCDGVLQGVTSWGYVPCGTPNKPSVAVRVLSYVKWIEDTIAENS
Experimental: Measurement of tissue kallikrein inhibitory activity
Expression and purification of human activated tissue kallikrein was performed according to the method of Angermann (A. Angermann et al., Eur. J. Biochem., 206, 225-233 (1992)). That is, a gene was prepared by adding 6 residues of histidine to the C-terminal side of human pancreas kallikrein gene (D. Fukuchima et al, Biochemistry, 24, 8037-8043 (1985)), and tissue prokallikrein was expressed by a system using a baculovirus-insect cell (Sf21). Purified human tissue kallikrein was obtained from the culture supernatant by purification using a nickel chelate column (Ni-NTA, QIAGEN K. K.), digestion with TPCK trypsin and further nickel chelate column. To a solution (100 μL) of the human activated tissue kallikrein adjusted to 0.0625 μg/mL with an assay buffer (100 mM tris-hydrochloride buffer (pH 8.4) containing 0.2M NaCl, 0.02% Tween 20, and 0.1% PEG 6000) was added an assay buffer (containing 2% DMSO) solution (50 μL) of the test compound adjusted to the objective concentration, and the mixture was incubated at 37° C. for 10 minutes (min=minutes). Then, a 4 mM solution (50 μL) of D-valyl-L-leucyl-L-arginyl-p-nitroanilide hydrochloride (BACHEM AG) adjusted with the assay buffer was added, the absorbance was measured and the reaction rate was determined. As a control, a DMSO solution (50 μL) was added instead of the solution of the test compound. Absorbance was measured at a wavelength of 405 nm at 60 second intervals for 90 min using a Benchmark Plus Microplate Reader (BIO RAD). The negative logarithm value (abbreviated as pIC50) of the test compound concentration when the activated tissue kallikrein activity (initial rate) was inhibited by 50% without addition of the test compound was used as an index of the activated tissue kallikrein inhibitory activity.

[3] = test system: DSS-induced enteritis model; assay: Efficacy evaluation in DSS-induced enteritis model; assay type: in vivo, female CBA mice; conditions: mice, 5% DSS, relative to non-treatment group = 100%, mean ± standard error
Text: Efficacy evaluation in DSS-induced enteritis model
The dextran sodium sulfate (DSS)-induced enteritis model was subjected to evaluation by a partly-modified methods of Gastroenterology, 98, 694-702 (1990) and Cytokine, 11, 890-896 (1998). A 5 (w/v) % DSS (manufactured by Sigma, MW 5,000) solution was freely taken by female CBA mice (CHARLES RIVER LABORATORIES JAPAN, INC.) for a given period to induce enteritis. A solution of the test compound adjusted to the objective concentration with a 0.5 (w/v) % tragacanth gum (TG) solution was orally administered at 5 mL/kg. Upon autopsy, the length, weight and the like of the large intestine were evaluated and used as an index of the onset of inflammatory enteritis. As a control, a mouse, to which a 0.5 (w/v) % TG solution was orally administered at 5 mL/kg instead of the test compound, was used. The length and weight of the large intestine are expressed as the relative value when the average value of the non-treatment group is 100%. As a Reference Example, the values obtained by oral administration of a positive control drug, salazosulfapyridine, instead of the test compound are shown. […] For testing the significant difference, Dunnett's t-test was used, and statistic significance as shown by P<0.05 and P<0.01 relative to the TG control group is shown in the Table with * and **, respectively.

- IC50 [2]: 0.251 µM
Compound: CCN1CCC(O)c2cc(C(F)(F)F)ccc21 (centres unmarked) [Compound E-6]
- suppression rate (%) ([1]; 3 mg/kg oral): 58.7 ± 7.0** %
- suppression rate (%) ([1]; 10 mg/kg oral): 58.7 ± 5.8** %
- suppression rate (%) ([1]; 30 mg/kg oral): 64.9 ± 8.3** %
- large intestine length (%) ([3]; 10 mg/kg oral): 85.2 ± 2.4** %
- large intestine weight (%) ([3]; 10 mg/kg oral): 117.5 ± 5.1** %
- large intestine length (%) ([3]; 30 mg/kg oral): 87.9 ± 2.0** %
- large intestine weight (%) ([3]; 30 mg/kg oral): 110.7 ± 4.1** %
